“And” between values parts separate entries of the source, which are not always exact repeats. Equal entries are not always repeated. Values belong to the compound of their own block, whether it stands above or below them.
System: 324938-238-R-J1-PDC complex spheroid growth, % test/control
Test: Anticancer human tumor 324938-238-R-J1-PDC patient-derived bladder carcinoma cell line growth inhibition [AhR]
Settings: for viability, T/C: stronger effect = lower value
In short: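 Spheroids combined tumor cells with HUVEC endothelial cells and human MSCs as stroma. AhR antagonists were paired with standard or investigational drugs, each dosed in half-log steps down from near clinical Cmax, or from 10 microM where Cmax was unknown.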

[1] = curve of first compound, second compound 0.1 µM
[2] = curve of first compound, second compound 0.316 µM
[3] = curve of first compound, second compound 1 µM
[4] = curve of first compound, second compound 3.16 µM
[5] = curve of first compound, second compound 10 µM
[6] = second compound 0.1 µM, first compound 0.0316 µM
[7] = second compound 0.1 µM, first compound 0.1 µM
[8] = second compound 0.1 µM, first compound 0.316 µM
[9] = second compound 0.1 µM, first compound 1 µM
[10] = second compound 0.316 µM, first compound 0.0316 µM
[11] = second compound 0.316 µM, first compound 0.1 µM
[12] = second compound 0.316 µM, first compound 0.316 µM
[13] = second compound 0.316 µM, first compound 1 µM
[14] = second compound 1 µM, first compound 0.0316 µM
[15] = second compound 1 µM, first compound 0.1 µM
[16] = second compound 1 µM, first compound 0.316 µM
[17] = second compound 1 µM, first compound 1 µM
[18] = second compound 3.16 µM, first compound 0.0316 µM
[19] = second compound 3.16 µM, first compound 0.1 µM
[20] = second compound 3.16 µM, first compound 0.316 µM
[21] = second compound 3.16 µM, first compound 1 µM
[22] = second compound 10 µM, first compound 0.0316 µM
[23] = second compound 10 µM, first compound 0.1 µM
[24] = second compound 10 µM, first compound 0.316 µM
[25] = second compound 10 µM, first compound 1 µM
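Further: spheroids exposed to agents for seven days before viability read.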

SMILES: COc1cc(Nc2ncc3c(n2)-c2ccc(Cl)cc2C(c2c(F)cccc2OC)=NC3)ccc1C(=O)O
- viability, T/C (compound 0.0316 µM): 101% and 74% and 71.8%
- viability, T/C (compound 0.1 µM): 111% and 56% and 46%
- viability, T/C (compound 0.316 µM): 68.3% and 32.7% and 27.7%
- viability, T/C (compound 1 µM): 92% and 36% and 28.2%
- viability, T/C (compound 3.16 µM): 92.5% and 38.2% and 27.3%
- viability, T/C (compound 10 µM): 75.8% and 39.1% and 32.8%

SMILES: COc1cccc2c1C(=O)c1c(O)c3c(c(O)c1C2=O)CC(O)(C(=O)CO)CC3OC1CC(N)C(O)C(C)O1 (stereo not given)
- viability, T/C (compound 0.0316 µM): 69.2% and 39.5% and 37.4%
- viability, T/C (compound 0.1 µM): 86% and 31.1% and 26.5%
- viability, T/C (compound 0.316 µM): 53.9% and 16.3% and 19.6%
- viability, T/C (compound 1 µM): 2.48% and 4.61% and 4.55%
- viability, T/C (compound 3.16 µM): 1.18% and 0.26% and 0.23%
- viability, T/C (compound 10 µM): 0.6% and 0.23% and 0.35%

SMILES: COc1cc(C2c3cc4c(cc3C(OC3OC5COC(C)OC5C(O)C3O)C3COC(=O)C23)OCO4)cc(OC)c1O (stereo not given)
- viability, T/C (compound 0.0316 µM): 118% and 99.2% and 96.2%
- viability, T/C (compound 0.1 µM): 101% and 103% and 86.9%
- viability, T/C (compound 0.316 µM): 113% and 51.8% and 53%
- viability, T/C (compound 1 µM): 97% and 31.6% and 32.9%
- viability, T/C (compound 3.16 µM): 78.7% and 31.4% and 29.9%
- viability, T/C (compound 10 µM): 95.9% and 19% and 20%

Now from value to compound, other results behind:

- IC50 [1]: > 1000 nM
- IC50 [2]: > 1000 nM
- IC50 [3]: > 1000 nM
- IC50 [4]: > 1000 nM
- IC50 [5]: < 3.16 nM
SMILES: Nc1ncn(C2CC(O)C(CO)O2)c(=O)n1 (stereo not given) + Cc1cncc(-c2nc(NCCc3c[nH]c4ccccc34)c3ncn(C(C)C)c3n2)c1
- viability, T/C (second compound 0.1 µM, first compound 0.00316 µM): 120%
- viability, T/C (second compound 0.1 µM, first compound 0.01 µM): 86.4%
- viability, T/C [6]: 101%
- viability, T/C [7]: 85.2%
- viability, T/C [8]: 128%
- viability, T/C [9]: 103%
- viability, T/C (second compound 0.316 µM, first compound 0.00316 µM): 111%
- viability, T/C (second compound 0.316 µM, first compound 0.01 µM): 103%
- viability, T/C [10]: 135%
- viability, T/C [11]: 92.9%
- viability, T/C [12]: 80.8%
- viability, T/C [13]: 161%
- viability, T/C (second compound 1 µM, first compound 0.00316 µM): 93.4%
- viability, T/C (second compound 1 µM, first compound 0.01 µM): 107%
- viability, T/C [14]: 127%
- viability, T/C [15]: 125%
- viability, T/C [16]: 84.8%
- viability, T/C [17]: 98.2%
- viability, T/C (second compound 3.16 µM, first compound 0.00316 µM): 83.5%
- viability, T/C (second compound 3.16 µM, first compound 0.01 µM): 76.6%
- viability, T/C [18]: 104%
- viability, T/C [19]: 76.9%
- viability, T/C [20]: 100%
- viability, T/C [21]: 112%
- viability, T/C (second compound 10 µM, first compound 0.00316 µM): 4.98%
- viability, T/C (second compound 10 µM, first compound 0.01 µM): 1.77%
- viability, T/C [22]: 6.15%
- viability, T/C [23]: 3.98%
- viability, T/C [24]: 4.54%
- viability, T/C [25]: 7.74%

- IC50 [1]: 1360 nM
- IC50 [2]: 1070 nM
- IC50 [3]: 1040 nM
- IC50 [4]: 875 nM
- IC50 [5]: 929 nM
SMILES: NS(=O)(=O)OCC1CC(n2ccc3c(NC4CCc5ccccc54)ncnc32)CC1O (stereo not given) + Cc1ccccc1N=Nc1ccc(NC(=O)c2ccnn2C)c(C)c1
- viability, T/C [6]: 85.5%
- viability, T/C [7]: 103%
- viability, T/C [8]: 79.7%
- viability, T/C [9]: 59%
- viability, T/C (second compound 0.1 µM, first compound 3.16 µM): 28.9%
- viability, T/C (second compound 0.1 µM, first compound 10 µM): 27.7%
- viability, T/C [10]: 93.2%
- viability, T/C [11]: 88.8%
- viability, T/C [12]: 76.1%
- viability, T/C [13]: 55.4%
- viability, T/C (second compound 0.316 µM, first compound 3.16 µM): 23.4%
- viability, T/C (second compound 0.316 µM, first compound 10 µM): 30.1%
- viability, T/C [14]: 88%
- viability, T/C [15]: 83.4%
- viability, T/C [16]: 82.7%
- viability, T/C [17]: 50.9%
- viability, T/C (second compound 1 µM, first compound 3.16 µM): 26.7%
- viability, T/C (second compound 1 µM, first compound 10 µM): 35.2%
- viability, T/C [18]: 79.8%
- viability, T/C [19]: 72.9%
- viability, T/C [20]: 73.7%
- viability, T/C [21]: 46.7%
- viability, T/C (second compound 3.16 µM, first compound 3.16 µM): 22.9%
- viability, T/C (second compound 3.16 µM, first compound 10 µM): 32%
- viability, T/C [22]: 72.7%
- viability, T/C [23]: 81%
- viability, T/C [24]: 74.1%
- viability, T/C [25]: 48.4%
- viability, T/C (second compound 10 µM, first compound 3.16 µM): 35.5%
- viability, T/C (second compound 10 µM, first compound 10 µM): 35.8%

- IC50 (curve of compound): > 3000 nM
SMILES: CCN(c1cc(-c2ccc(CN3CCOCC3)cc2)cc(C(=O)NCc2c(C)cc(C)[nH]c2=O)c1C)C1CCOCC1
- viability, T/C (compound 0.00949 µM): 93.5% and 100% and 111%
- viability, T/C (compound 0.03 µM): 109% and 106% and 117%
- viability, T/C (compound 0.0949 µM): 106% (2×) and 107%
- viability, T/C (compound 0.3 µM): 83% and 100% and 116%
- viability, T/C (compound 0.949 µM): 85% and 104% and 113%
- viability, T/C (compound 3 µM): 124% and 97.5% and 105%

Source: PubChem BioAssay AID1918995 (Molecular Pharmacology Branch, DTP, NCI, 2023)
